Assay results published in patent US20110002987A1, “Nicorandil Carriers with Enhanced Stability” (RIVOPHARM SA, priority 2008, published 2011).

Test: Stability tests of nicorandil tablets in alu/alu blister with desiccant system
Format: physicochemical
Conditions: stored in combination with molecular sieve instead of silica gel desiccant, 6 months
Description: Two batches of Nicorandil tablets, 10 mg (batch 043/07) and 20 mg (batch 044/07) respectively, were prepared and packed according to the invention, in alu/alu blister together with a desiccant system.
Silica gel and molecular sieves were compared as desiccant systems and among molecular sieves, systems with different capacity of water absorption were considered.
043/07A: silica gel system
043/07B: 1 lozenge of desiccant plastic composition (Molecular Sieve 4A as provided by CSP technologies), containing molecular sieve 4 Å, a base polymer of polypropylene and an elastomer (moisture absorbed in mg: about 64)
043/07C: 5 lozenges of desiccant plastic composition (Molecular Sieve 4A as provided by CSP technologies), containing molecular sieve 4 Å, a base polymer of polypropylene and an elastomer (moisture absorbed in mg: about 320)
The blisters were placed on stability at the following conditions for 6 months:
25±2° C./60±5% relative humidity (RH)
Nicorandil is particularly sensitive to humidity. Two impurities (named rrt0.14 and rrt0.25) are generated when the product is exposed to moisture and therefore were monitored during stability.

- stability of nicorandil: more stable
- stability of nicorandil (listed as nicorandil): improved stability
Compound: O=C(NCCO[N+](=O)[O-])c1cccnc1 [Nicorandil]
